Assay results from ChEMBL document CHEMBL1201862, “PubChem BioAssay data set” (2004).
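Grown in 96-well plates, cells were treated for 48 hours with each compound at five concentrations. Insufficient inhibition: endpoint recorded as highest concentration tested. GI50: concentration for 50% inhibition of growth.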 The source made the active and inactive calls. No stated cut-off is given here; in the data, active = GI50 up to about 1.1 µM and inactive = higher.

How the values were obtained:
Assay in all cases: inhibition of tumour cell growth, NCI panel, 48 h
786-0 = test system: 786-0
A498 = test system: A498
A549 = test system: A549
ACHN = test system: ACHN
CAKI-1 = test system: CAKI-1
CCRF-CEM = test system: CCRF-CEM
COLO 205 = test system: COLO 205
DLD-1 = test system: DLD-1
DMS-273 = test system: DMS-273
EKVX = test system: EKVX
HCC 2998 = test system: HCC 2998
HCT-116 = test system: HCT-116
HCT-15 = test system: HCT-15
HL-60 = test system: HL-60
HOP-18 = test system: HOP-18
HOP-62 = test system: HOP-62
HT-29 = test system: HT-29
IGROV-1 = test system: IGROV-1
K562 = test system: K562
KM-20L2 = test system: KM-20L2
KM12 = test system: KM12
LOX IMVI = test system: LOX IMVI
LXFL 529 = test system: LXFL 529
M14 = test system: M14
M19-MEL = test system: M19-MEL
MOLT-4 = test system: MOLT-4
Malme-3M = test system: Malme-3M
NCI-H226 = test system: NCI-H226
NCI-H23 = test system: NCI-H23
NCI-H460 = test system: NCI-H460
NCI-H522 = test system: NCI-H522
OVCAR-3 = test system: OVCAR-3
OVCAR-4 = test system: OVCAR-4
OVCAR-5 = test system: OVCAR-5
OVCAR-8 = test system: OVCAR-8
RXF 393 = test system: RXF 393
SF-268 = test system: SF-268
SF-295 = test system: SF-295
SF-539 = test system: SF-539
SK-MEL-28 = test system: SK-MEL-28
SK-MEL-2 = test system: SK-MEL-2
SK-MEL-5 = test system: SK-MEL-5
SK-OV-3 = test system: SK-OV-3
SN12C = test system: SN12C
SNB-19 = test system: SNB-19
SNB-75 = test system: SNB-75
SNB-78 = test system: SNB-78
SR = test system: SR
SW-620 = test system: SW-620
TK-10 = test system: TK-10
U-251 = test system: U-251
UACC-257 = test system: UACC-257
UACC-62 = test system: UACC-62
UO-31 = test system: UO-31
XF498 = test system: XF498
HOP-92 = test system: HOP-92
RPMI-8226 = test system: RPMI-8226
DMS-114 = test system: DMS-114

In the case of `CCOC(=N)CC(=O)Nc1ccc(Cl)cc1`, the GI50 (786-0) is reported as > 100 µM (inactive), the GI50 (A498) is reported as > 100 µM (inactive) and the GI50 (A549) is reported as > 100 µM (inactive). For the same molecule, the GI50 (ACHN) was > 100 µM (inactive), the GI50 (CAKI-1) was > 100 µM (inactive) and the GI50 (CCRF-CEM) was > 100 µM (inactive). For the same molecule, the GI50 (COLO 205) was > 100 µM (inactive), the GI50 (DLD-1) was > 100 µM (inactive) and the GI50 (DMS-273) was > 100 µM (inactive). The GI50 (EKVX) was > 100 µM (inactive), the GI50 (HCC 2998) was > 100 µM (inactive) and the GI50 (HCT-116) was > 100 µM (inactive). For the same molecule, the GI50 (HCT-15) was > 100 µM, the GI50 (HL-60) was > 100 µM (inactive) and the GI50 (HOP-18) was 1.73 µM (inactive). For the same molecule, the GI50 (HOP-62) was > 100 µM (inactive), the GI50 (HT-29) was > 100 µM (inactive) and the GI50 (IGROV-1) was > 100 µM (inactive). The GI50 (K562) was > 100 µM (inactive), the GI50 (KM-20L2) was > 100 µM (inactive) and the GI50 (KM12) was > 100 µM (inactive). The GI50 (LOX IMVI) was > 100 µM (inactive), the GI50 (LXFL 529) was > 100 µM (inactive) and the GI50 (M14) was > 100 µM (inactive). The GI50 (M19-MEL) was > 100 µM (inactive), the GI50 (MOLT-4) was > 100 µM (inactive) and the GI50 (Malme-3M) was > 100 µM (inactive). For the same molecule, the GI50 (NCI-H226) was > 100 µM (inactive), the GI50 (NCI-H23) was > 100 µM (inactive) and the GI50 (NCI-H460) was > 100 µM (inactive). The GI50 (NCI-H522) was > 100 µM (inactive), the GI50 (OVCAR-3) was > 100 µM (inactive) and the GI50 (OVCAR-4) was > 100 µM (inactive). For the same molecule, the GI50 (OVCAR-5) was > 100 µM (inactive), the GI50 (OVCAR-8) was > 100 µM (inactive) and the GI50 (RXF 393) was > 100 µM (inactive). For the same molecule, the GI50 (SF-268) was > 100 µM (inactive), the GI50 (SF-295) was > 100 µM (inactive) and the GI50 (SF-539) was > 100 µM (inactive). For the same molecule, the GI50 (SK-MEL-28) was > 100 µM (inactive), the GI50 (SK-MEL-2) was > 100 µM (inactive) and the GI50 (SK-MEL-5) was > 100 µM (inactive). The GI50 (SK-OV-3) was > 100 µM (inactive), the GI50 (SN12C) was > 100 µM (inactive) and the GI50 (SNB-19) was > 100 µM (inactive). For the same molecule, the GI50 (SNB-75) was > 100 µM (inactive), the GI50 (SNB-78) was > 100 µM (inactive) and the GI50 (SR) was > 100 µM (inactive). For the same molecule, the GI50 (SW-620) was > 100 µM (inactive), the GI50 (TK-10) was > 100 µM (inactive) and the GI50 (U-251) was > 100 µM (inactive). The GI50 (UACC-257) was > 100 µM (inactive), the GI50 (UACC-62) was > 100 µM (inactive) and the GI50 (UO-31) was > 100 µM (inactive). For the same molecule, the GI50 (XF498) was > 100 µM (inactive).

In the case of `COc1nc(NC2OCC(OC(C)=O)C(OC(C)=O)C2OC(C)=O)c(/N=C\C=N\c2c(NC3OCC(OC(C)=O)C(OC(C)=O)C3OC(C)=O)nc(OC)n(C)c2=O)c(=O)n1C` (stereo not drawn), the GI50 (786-0) is reported as > 100 µM (inactive), the GI50 (A498) is reported as > 100 µM (inactive) and the GI50 (A549) is reported as > 100 µM (inactive). For the same molecule, the GI50 (ACHN) was > 100 µM (inactive), the GI50 (COLO 205) was > 100 µM (inactive) and the GI50 (DLD-1) was > 100 µM (inactive). The GI50 (DMS-273) was > 100 µM (inactive), the GI50 (EKVX) was > 100 µM (inactive) and the GI50 (HCC 2998) was > 100 µM (inactive). The GI50 (HCT-116) was > 100 µM (inactive), the GI50 (HCT-15) was > 100 µM and the GI50 (HL-60) was > 100 µM (inactive). The GI50 (HOP-18) was > 100 µM (inactive), the GI50 (HOP-62) was > 100 µM (inactive) and the GI50 (HOP-92) was > 100 µM (inactive). For the same molecule, the GI50 (HT-29) was > 100 µM (inactive), the GI50 (IGROV-1) was > 100 µM (inactive) and the GI50 (K562) was > 100 µM (inactive). For the same molecule, the GI50 (KM-20L2) was > 100 µM (inactive), the GI50 (KM12) was > 100 µM (inactive) and the GI50 (LOX IMVI) was > 100 µM (inactive). The GI50 (LXFL 529) was > 100 µM (inactive), the GI50 (M14) was > 100 µM (inactive) and the GI50 (M19-MEL) was > 100 µM (inactive). For the same molecule, the GI50 (Malme-3M) was > 100 µM (inactive), the GI50 (NCI-H23) was > 100 µM (inactive) and the GI50 (NCI-H460) was > 100 µM (inactive). The GI50 (NCI-H522) was > 100 µM (inactive), the GI50 (OVCAR-3) was > 100 µM (inactive) and the GI50 (OVCAR-4) was > 100 µM (inactive). The GI50 (OVCAR-5) was > 100 µM (inactive), the GI50 (OVCAR-8) was > 100 µM (inactive) and the GI50 (RPMI-8226) was > 100 µM (inactive). For the same molecule, the GI50 (RXF 393) was > 100 µM (inactive), the GI50 (SF-268) was > 100 µM (inactive) and the GI50 (SF-295) was > 100 µM (inactive). For the same molecule, the GI50 (SF-539) was > 100 µM (inactive), the GI50 (SK-MEL-28) was > 100 µM (inactive) and the GI50 (SK-MEL-2) was > 100 µM (inactive). The GI50 (SK-MEL-5) was > 100 µM (inactive), the GI50 (SK-OV-3) was > 100 µM (inactive) and the GI50 (SN12C) was > 100 µM (inactive). For the same molecule, the GI50 (SNB-19) was > 100 µM (inactive), the GI50 (SNB-75) was > 100 µM (inactive) and the GI50 (SNB-78) was > 100 µM (inactive). For the same molecule, the GI50 (SR) was > 100 µM (inactive), the GI50 (SW-620) was > 100 µM (inactive) and the GI50 (TK-10) was > 100 µM (inactive). The GI50 (U-251) was > 100 µM (inactive), the GI50 (UACC-257) was > 100 µM (inactive) and the GI50 (UACC-62) was > 100 µM (inactive). The GI50 (UO-31) was > 100 µM (inactive) and the GI50 (XF498) was 17.9 µM (inactive).

For `Cc1ccc(C2NC(=O)c3ccccc3N2)s1` (stereo not drawn), the GI50 (786-0) was 5.69 µM (inactive), the GI50 (A498) was 6.78 µM (inactive) and the GI50 (A549) was 8.83 µM (inactive). For the same molecule, the GI50 (ACHN) was > 100 µM (inactive), the GI50 (CCRF-CEM) was 3.27 µM (inactive) and the GI50 (DLD-1) was 5.02 µM (inactive). The GI50 (DMS-114) was 5.21 µM (inactive), the GI50 (DMS-273) was 4.25 µM (inactive) and the GI50 (EKVX) was > 100 µM (inactive). For the same molecule, the GI50 (HCC 2998) was 7.05 µM (inactive), the GI50 (HCT-116) was 6.31 µM (inactive) and the GI50 (HCT-15) was 4.09 µM. The GI50 (HL-60) was 2.92 µM (inactive), the GI50 (HOP-62) was 4.37 µM (inactive) and the GI50 (IGROV-1) was 6.67 µM (inactive). For the same molecule, the GI50 (K562) was 3.2 µM (inactive), the GI50 (KM-20L2) was 4.55 µM (inactive) and the GI50 (KM12) was 4.61 µM (inactive). For the same molecule, the GI50 (LOX IMVI) was 6.55 µM (inactive), the GI50 (LXFL 529) was 7.64 µM (inactive) and the GI50 (M14) was 8.05 µM (inactive). The GI50 (M19-MEL) was 6.12 µM (inactive), the GI50 (MOLT-4) was 3.07 µM (inactive) and the GI50 (Malme-3M) was 4.8 µM (inactive). For the same molecule, the GI50 (NCI-H23) was 4.36 µM (inactive), the GI50 (NCI-H460) was 4.25 µM (inactive) and the GI50 (NCI-H522) was 4.26 µM (inactive). For the same molecule, the GI50 (OVCAR-3) was 3.8 µM (inactive), the GI50 (OVCAR-5) was 10 µM (inactive) and the GI50 (OVCAR-8) was 8.43 µM (inactive). The GI50 (RPMI-8226) was 4.69 µM (inactive), the GI50 (RXF 393) was 5.86 µM (inactive) and the GI50 (SF-268) was 8 µM (inactive). The GI50 (SF-295) was 2.37 µM (inactive), the GI50 (SF-539) was 3.28 µM (inactive) and the GI50 (SK-MEL-28) was 5.81 µM (inactive). The GI50 (SK-MEL-2) was 3.75 µM (inactive), the GI50 (SK-MEL-5) was 2.88 µM (inactive) and the GI50 (SK-OV-3) was 5.4 µM (inactive). The GI50 (SN12C) was 4.79 µM (inactive), the GI50 (SNB-19) was 59.6 µM (inactive) and the GI50 (SNB-78) was 33.2 µM (inactive). The GI50 (SR) was 8.3 µM (inactive), the GI50 (SW-620) was 2.94 µM (inactive) and the GI50 (TK-10) was > 100 µM (inactive). For the same molecule, the GI50 (U-251) was 4.6 µM (inactive), the GI50 (UACC-257) was 2.32 µM (inactive) and the GI50 (UACC-62) was 5.51 µM (inactive). For the same molecule, the GI50 (UO-31) was 7.38 µM (inactive) and the GI50 (XF498) was 3.21 µM (inactive).
